# Assay results published in patent US20080260659A1, “Compositions” (GIVAUDAN SA, priority 2005, published 2008).
# Columns and labels:
# Format in all cases: cell-based
# [1] = tested on: Aspergillus niger ATCC 16404 spores; experiment: Sporicidal effect of test compounds in water; details: 0.1% test compound, 7 days
# Experimental: Aspergillus niger ATCC 16404 spores are added to water to obtain a density of 3×10^5 spores 1 ml. In order to prepare the spores, the test strain is grown for 5 days on potato dextrose agar at room temperature. The spores are harvested with a solution containing 0.1% Tween 80, peptone 0.1% and NaCl 0.85% and the spore concentration is adjusted to the density indicated above.
# Test compounds are dissolved in dipropyleneglycol to a concentration of 20%.
# These stock solutions are added to 10 ml aliquots of the spore suspension to obtain a final concentration of the test compounds of 0.1%. The sporicidal effect is shown by a reduction of spore counts after 7 days.
# The reduction factor is determined as follows. Aliquots of the above prepared suspension of microorganisms (here: spore suspension prepared as described above) are plated on a suitable agar medium (see above) and the developing colonies are counted both for samples with test compound and for a negative probe (water). The count of the negative control is divided by the count of the test compound and thereby the reduction factor is determined. A negative control (water) accordingly has a reduction factor of 1 (no effect on the microorganism).
# [2] = tested on: Staphylococcus aureus (DSMZ 799) and Pseudomonas aeruginosa (ATCC 15442); experiment: Bactericidal effect in a cosmetic cream (mixed inoculum 1:1); details: cosmetic cream pH 5,5; 0.1% 4-hydroxybenzaldehyde, no parabens
# Experimental: (§1) A cosmetic cream (pH 5,5) for application to the human skin is formulated as follows (in % w/w): […]
# (§2) Glyceryl-monostearate, Sweet almond oil, Cetyl-stearyl-alcohol and Glyceryl dilaurate are melted at 80° C. Xanthan gum is dispersed into glycerine. Arginine is dissolved in water and heated to 75° C. The Xanthan gum—glycerin suspension is added to the heated water phase, the heated oil phase is added and the suspension is stirred at 300 rpm for 10 min whilst being cooled down slowly. Finally, a homogeneous emulsion is made with a high speed homogenizer at 5000 rpm.
# (§3) Test samples of cream contain different amounts of preservatives and/or preservative enhancer. The preservative and preservative enhancer is added to an aliquot of 10 g of the cream in 50 ml tubes in a concentration as shown in the table below. After addition of the preservative/preservative enhancer, the cream is thoroughly mixed to achieve a homogeneous distribution.
# After 1-3 days of equilibration of the cream (storage at room temperature to achieve a homogenous partitioning of compounds between oil and water phase), […]
# Aliquots of these suspended and diluted samples are plated on tryptic soy agar supplemented with 0.5% Tween 80 and then incubated for 24 h at 37° C. Surviving bacteria are counted.
# (§4) The count of the negative control is divided by the count of the probe and thereby the reduction factor is determined. […]
# [3] = tested on: Aspergillus niger ATCC 16404 spores; experiment: Sporicidal effect in a cosmetic cream; details: cosmetic cream pH 5,5; 0.1% 4-hydroxybenzaldehyde, no parabens
# Experimental: as §1, §2
# as §3, with “distribution. […]” for “distribution.”
# After regular test intervals, samples of 1 g cream are removed and added to 20 ml of a neutralizer solution containing 0.2% lecithin, 2% Tween 80 and 0.5% NaCl. […] After 48 h to 72 h the number of surviving colony forming units (and therefore surviving spores) are counted.
# as §4
SMILES,Sporicidal effect / reduction of spore counts [1],reduction factor 24 h bacteria [2],reduction factor 7 d fungal spores [3]
"CC(CC=O)CCc1ccccc1 (stereo not drawn) [Mefranal, 3-methyl-5-phenylpentanal, reference compound]",significant sporicidal effect,–,–
"C=CCCCCCCCCO [9-decenol, reference compound]",significant sporicidal effect,–,–
COc1ccc(C=O)cc1 [4-methoxy-benzaldehyde],No significant reduction of spore counts,–,–
O=Cc1ccc(O)cc1 [4-hydroxybenzaldehyde],No significant reduction of spore counts,1,1
